Counter-ions that a name gives are not always drawn.
Legend:
[1] = system: HOP-62; assay: NCI screen antiproliferative activity, lung HOP-62
Description: (§1) Cells of approximately 60 different human cancer cell lines were incubated for 48 h with five 10-fold dilutions of the tested compounds starting from 100 μM and then treated with sulforhodamine B dye. The ratios of recorded optical densities relative to that of the control were plotted as a function of the common logarithm of the tested compound concentrations. […] The GI50 and the mean graph midpoint (MGM) values of the prepared indenoisoquinolines in selected cell lines are presented in Table I.
(§2) The antiproliferative activity of each compound was determined in the National Cancer Institute (NCI) screen as described above. Cells of approximately 60 different human cancer cell lines were incubated for 48 h with five 10-fold dilutions of the test compounds starting from 100 μM, and then treated with sulforhodamine B dye. The ratios of recorded optical densities relative to those of the control were plotted as a function of the common logarithm of the tested compound concentrations. […] The GI50 and the mean graph midpoint (MGM) values of the prepared (aza)indeno-isoquinolines in selected cell lines are presented in Table 2.

[2] = system: DU-145; assay: NCI screen antiproliferative activity, prostate DU-145
Description: as §1, §2

[3] = system: UACC-62; assay: NCI screen antiproliferative activity, melanoma UACC-62
Description: as §1, §2

[4] = system: OVCAR-3; assay: NCI screen antiproliferative activity, ovarian OVCAR-3
Description: as §1, §2

[5] = biological target: T1, human recombinant Top1 (Homo sapiens, UniProt P11387); assay: Top1-mediated DNA cleavage assay; format: biochemical; conditions: semiquantitative, relative to compounds 1 and 2; Table 2
T1 construct: made in house
T1 sequence (P11387 1-765): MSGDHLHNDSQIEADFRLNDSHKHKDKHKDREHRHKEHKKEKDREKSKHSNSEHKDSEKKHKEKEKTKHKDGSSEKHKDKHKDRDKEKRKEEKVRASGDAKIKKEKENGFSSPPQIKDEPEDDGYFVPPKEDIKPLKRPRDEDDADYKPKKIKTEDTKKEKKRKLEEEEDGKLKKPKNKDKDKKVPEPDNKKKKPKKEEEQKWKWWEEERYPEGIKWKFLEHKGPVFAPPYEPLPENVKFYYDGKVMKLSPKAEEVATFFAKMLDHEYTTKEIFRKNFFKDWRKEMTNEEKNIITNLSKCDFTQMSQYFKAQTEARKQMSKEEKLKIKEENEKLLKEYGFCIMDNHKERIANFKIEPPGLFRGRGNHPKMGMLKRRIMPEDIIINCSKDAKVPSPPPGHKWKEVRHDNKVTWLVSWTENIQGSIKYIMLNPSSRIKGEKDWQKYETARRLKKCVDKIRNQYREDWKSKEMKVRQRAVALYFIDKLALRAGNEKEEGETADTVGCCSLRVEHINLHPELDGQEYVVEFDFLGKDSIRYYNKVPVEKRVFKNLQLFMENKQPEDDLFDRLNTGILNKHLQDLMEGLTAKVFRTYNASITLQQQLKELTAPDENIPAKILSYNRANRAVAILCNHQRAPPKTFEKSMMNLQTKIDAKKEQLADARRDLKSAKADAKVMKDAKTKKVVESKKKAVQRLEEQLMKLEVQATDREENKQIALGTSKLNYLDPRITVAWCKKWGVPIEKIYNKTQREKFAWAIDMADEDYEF
Description: Unincorporated [^32P]dGTP was removed using mini Quick […] columns (Roche, Indianapolis, Ind.), and the eluate containing the […] DNA substrate was collected. […] Aliquots of each reaction mixture were subjected to 20% denaturing PAGE. […] The DNA fragments were separated on a denaturing gel. […] All of the target compounds were tested for induction of DNA damage in Top1-mediated DNA cleavage assays, as described above.

[6] = system: HCT-116; assay: NCI screen antiproliferative activity, colon HCT-116
Description: as §1, §2

[7] = system: SN12C; assay: NCI screen antiproliferative activity, renal SN12C
Description: as §1, §2

[8] = system: approximately 60 different human cancer cell lines; assay: NCI screen, mean graph midpoint over all cell lines; format: cell-based; conditions: all human cancer cell lines successfully tested; 48 h; Table 2
Description: as §1, §2

[9] = system: SF-539; assay: NCI screen antiproliferative activity, CNS SF-539
Description: as §1, §2

[10] = system: MCF7; assay: NCI screen antiproliferative activity, breast MCF7
Description: as §1, §2

melting point	SMILES	GI50 [1]	GI50 [2]	GI50 [3]	GI50 [4]	Top1 Cleavage [5]	GI50 [6]	GI50 [7]	MGM (mean graph midpoint for growth inhibition) [8]	GI50 [9]	GI50 [10]
268 to 270 °C	CN(C)CCCn1c2c(c3ccccc3c1=O)C(=O)c1cccnc1-2 (as salt: hydrochloride) [Compound 18, 7-Aza-5,6-dihydro-6-(3-dimethylaminopropyl)-5,11-dioxo-11H-indeno[1,2-c]-isoquinoline Hydrochloride]										
278 to 281 °C (dec.)	COc1cc2c3c(n(CCCN(C)C)c(=O)c2cc1OC)-c1ncccc1C3=O (as salt: hydrochloride) [Compound 19, 7-Aza-5,6-dihydro-6-(3-dimethylaminopropyl)-2,3-dimethoxy-5,11-dioxo-11H-indeno[1,2-c]isoquinoline Hydrochloride]										
	COc1cc2c3c(n(CCCN4CCOCC4)c(=O)c2cc1OC)-c1cnccc1C3=O.O=C(O)C(F)(F)F [Compound 118, 8-Aza-5,6-dihydro-6-(3-(4-morpholino)propyl)-2,3-dimethoxy-5,11-dioxo-11H-indeno[1,2-c]isoquinoline Trifluoroacetate]	6.5 µM	24 µM	48 µM	24 µM	++	2.5 µM	16 µM	16 µM	40 µM	4.1 µM
	COc1cc2c3c(n(CCCN(C)C)c(=O)c2cc1OC)-c1ccncc1C3=O.O=C(O)C(F)(F)F [Compound 127, 9-Aza-5,6-dihydro-6-(3-dimethylaminopropyl)-2,3-dimethoxy-5,11-dioxo-11H-indeno[1,2-]isoquinoline Trifluoroacetate]	6.5 µM	2.9 µM	> 100 µM	7.4 µM	+ (+ weak activity;)	0.62 µM	8.5 µM	6.5 µM	12 µM	3.9 µM
	COc1cc2c3c(n(CCCN4CCOCC4)c(=O)c2cc1OC)-c1ccncc1C3=O.O=C(O)C(F)(F)F [Compound 128, 9-Aza-5,6-dihydro-6-(3-(4-morpholino)propyl)-2,3-dimethoxy-5,11-dioxo-11H-indeno[1,2-c]isoquinoline Trifluoroacetate]	5 µM	7.6 µM	85 µM	12 µM	++	0.39 µM	5.9 µM	9.5 µM	> 100 µM	1.9 µM

From patent US8686146B2, “Azaindenoisoquinoline topoisomerase I inhibitors” (Purdue Research Foundation, priority 2012, dated 2014)
